Data reported in patent US20060135769A1, “Farnesyl transferase inhibiting 4-heterocyclyl-quinoline and quinazoline derivatives” (priority 2000, published 2006).

| SMILES | melting point |
| --- | --- |
| Cn1cncc1C(O)(c1ccc(Cl)cc1)c1ccc2[nH]c(=O)cc(-c3cccnc3)c2c1 (centres unmarked) [Example B3, 6-[(4-chlorophenyl)hydroxy(1-methyl-1H-imidazol-5-yl)methyl]-4-(3-pyridinyl)-2(1H)-quinolinone] | > 250 °C |
| Cn1c(=O)cc(CCc2ccc(Cl)s2)c2cc(C(O)(c3ccc(Cl)cc3)c3cccnc3)ccc21 (centres unmarked) [Example B13, 6-[(4-chlorophenyl)hydroxy-3-pyridinylmethyl]-4-[2-(5-chloro-2-thienyl)ethyl]-1-methyl-2(1H)-quinolinone] | 110 °C |
| Cn1cncc1C(O)(c1ccc(Cl)cc1)c1ccc2c(c1)c(CCc1ccc(Cl)s1)cc(=O)n2C (centres unmarked) [Example B10, 6-[(4-chlorophenyl)hydroxy(1-methyl-1H-imidazol-5-yl)methyl]-4-[2-(5-chloro-2-thienyl)ethyl]-1-methyl-2(1H)-quinolinone] | 128 °C |
| Cn1c(=O)cc(CCc2ccc(Cl)s2)c2cc(C(N)(c3ccc(Cl)cc3)c3cccnc3)ccc21 (centres unmarked) [Example B14, 6-[amino(4-chlorophenyl)-3-pyridinylmethyl]-4-[2-(5-chloro-2-thienyl)ethyl]-1-methyl-2(1H)-quinolinone] | 100 °C |
| O=c1cc(-n2ccnc2)c2cc(C(c3ccc(Cl)cc3)n3ccnc3)ccc2[nH]1 (centres unmarked) [Example B1, 6-[(4-chlorophenyl)-1H-imidazol-1-ylmethyl]-4-(1H-imidazol-1-yl)-2(1H)-quinolinone] | 242.3 °C |

Next, values leading:

| melting point | SMILES |
| --- | --- |
| 200 °C | Cn1cncc1C(O)(c1ccc(Cl)cc1)c1ccc2c(c1)c(-c1nc(-c3ccccc3)cs1)cc(=O)n2C (centres unmarked) [Example B4, 6-[(4-chlorophenyl)hydroxy(1-methyl-1H-imidazol-5-yl)methyl]-1-methyl-4-(4-phenyl-2-thiazolyl)-2(1H)-quinolinone] |
| 244 °C | CC(=O)NC(c1ccc(Cl)cc1)(c1ccc2c(c1)c(-c1nc(-c3ccccc3)cs1)cc(=O)n2C)c1cncn1C (centres unmarked) [Example B8, N-[(4-chlorophenyl)[1,2-dihydro-1-methyl-2-oxo-4-(4-phenyl-2-thiazolyl)-6-quinolinyl](1-methyl-1H-imidazol-5-yl)methyl]-acetamide] |
| 190 °C | Cn1c(=O)cc(-c2nc(-c3ccccc3)cs2)c2cc(C(c3ccc(Cl)cc3)c3cnc(-c4ccccc4)[nH]3)ccc21 (centres unmarked) [Example B9 (F2), 6-[(4-chlorophenyl)(2-phenyl-1H-imidazol-5-yl)methyl]-1-methyl-4-(4-phenyl-2-thiazolyl)-2(1H)-quinolinone] |
| > 260 °C | Cn1cncc1C(O)(c1ccc(Cl)cc1)c1ccc2c(c1)c(-c1cccs1)cc(=O)n2C (centres unmarked) [Example B2, 6-[(4-chlorophenyl)hydroxy(1-methyl-1H-imidazol-5-yl)methyl]-1-methyl-4-(2-thienyl)-2(1H)-quinolinone] |
| 237 °C | Cn1cncc1C(N)(c1ccc(Cl)cc1)c1ccc2c(c1)c(-c1nc(-c3ccccc3)cs1)cc(=O)n2C (centres unmarked) [Example B7, 6-[amino(4-chlorophenyl)(1-methyl-1H-imidazol-5-yl)methyl]-1-methyl-4-(4-phenyl-2-thiazolyl)-2(1H)-quinolinone] |
| 171 °C | Cn1cncc1C(c1ccc(Cl)cc1)c1ccc2c(c1)c(-c1nc(-c3ccccc3)cs1)cc(=O)n2C (centres unmarked) [Example B6, 6-[(4-chlorophenyl)(1-methyl-1H-imidazol-5-yl)methyl]-1-methyl-4-(4-phenyl-2-thiazolyl)-2(1H)-quinolinone] |
